Test results taken from publication PMC10578308, “Design of Synthetic Surrogates for the Macrolactone Linker Motif in Coibamide A” (ACS Medicinal Chemistry Letters, 2023).
Positions of bridges follow the written chain, without caps; N, C: chain ends. Non-standard residues stand in square brackets, D forms with d. Residues, ends and D or L forms follow the SMILES beside them. *: point of attachment. NMe2Val = CC(C)[C@@H](C(=O)*)N(C)C; NMeI = CC[C@H](C)[C@H](NC)C(=O)O; NMeT = CN[C@H](C(=O)O)[C@@H](C)O; NMeL = CN[C@@H](CC(C)C)C(=O)O; NMeDap = CN[C@@H](CN)C(=O)O; dHiv = CC(C)[C@@H](O)C(=O)O; NMeS = CN[C@@H](CO)C(=O)O; NMeA = CN[C@@H](C)C(=O)O; dNMeA = CN[C@H](C)C(=O)O

Assays:
[1] = system: human A549 lung cancer cells; assay: MTS antiproliferative/cell viability assay in A549 cells; type: cell-based; conditions: for CC50: human A549 lung cancer cells, MTS, 72 h, n = 3, read-out: CC50 (concentration for a 50% decrease in viability)
Description: Next, we synthesized CbA derivatives 3a,b by Fmoc-based SPPS using Fmoc/Alloc protected lysine derivatives 4a,b, according to the synthetic procedure for CbA mimetics in our previous study (Scheme S2).[21] The bioactivity profile of the resulting peptides 3a,b was investigated by using a standard MTS antiproliferative/cell viability assay to assess the cytotoxic potential of CbA analogues against human A549 lung cancer cells (Table 1).
10% (v/v) fetal bovine serum at 37 °C in a 5% CO2-incubator. Viability assays using A549 cells were performed in 96-well plates (BD Falcon). A549 cells were seeded at 1000 cells/well in 90 μL of culture media, respectively, and were cultured for 24 h. Chemical compounds in DMSO were diluted 50-fold with the culture medium in advance. 30 μL of the chemical diluents were added. The final volume of DMSO in the medium was equal to 0.5% (v/v). The cells under chemical treatment were incubated for a further 72 h. The wells in the plates were washed twice with the cultured medium without phenol- […]
After 1-hour incubation with 100 μL of the medium, the cell culture in each well was supplemented with 20 μL of the MTS reagent (Promega), followed by incubation for additional 40 min. Absorbance at 490 nm of each well was measured using a Wallac 1420 ARVO SX multilabel counter (Perkin Elmer).
Three experiments were performed per condition and the averages of inhibition rates in each condition were evaluated to determine IC50 values using the GraphPad Prism software. […]

[2] = target: GLuc secretion (model Sec61 substrate) from U87-MG-GLuc cells (Homo sapiens, UniProt P61619); assay: Gaussia luciferase (GLuc) secretory assay; type: cell-based; conditions: 18-h incubation, n = 3, read-out: IC50 (50% inhibition of GLuc expression)
Description: To investigate the mechanistic basis for cytotoxicity, all CbA derivatives were evaluated for their ability to inhibit expression of a model Sec61 substrate using U87-MG cells engineered to express a naturally secreted reporter protein, Gaussia luciferase (GLuc) (Tables 1 and 2). For these studies, U87-MG-GLuc cells were exposed to increasing concentrations of each peptide, or vehicle, for 18 h, and the cell culture medium was assayed for the presence of GLuc. […]
Gaussia Luciferase (GLuc) Secretory Assay
The generation of U87-MG cells expressing the secreted reporter Gaussia luciferase (GLuc) has been described previously.S5,S6 U87-MG-GLuc cells were cultured in Minimum Essential Medium (MEM) with Earl’s salts and L-glutamine (Corning Life Sciences), supplemented with 10% fetal bovine serum […]
(FBS; Hyclone, Logan, UT) and 100 U/mL penicillin and […] streptomycin (1% penicillin/streptomycin). All cells were grown under standard conditions and maintained at 37 °C in an atmosphere of 5% CO2. For analysis of biological activity, cells were seeded at 3,000 cells/well into 96-well plates and allowed to attach overnight. On the day of the experiment, all cells were treated at the same time with the test compound or vehicle (0.1% DMSO) and plates returned to the cell culture

[3] = system: U87-MG glioblastoma cells; assay: CellTiter-Glo viability assay, U87-MG cells; type: cell-based, human; conditions: 50% viability after 72-hr incubation, n = 3
Description: (§1) Viability Assays Using U87 MG Cells, HCT116 Cells and normal human dermal fibroblasts.
Human U87-MG glioblastoma, HCT116 colon cancer cells and normal human dermal fibroblasts were from American Type Culture Collection (ATCC, Manasses, VA). U87-MG cells were cultured in Minimum Essential Medium (MEM) with Earl’s salts and L-glutamine (Corning Life Sciences), supplemented with 10% fetal bovine serum (FBS; Hyclone, Logan, UT) and 100 U/mL penicillin and […] streptomycin (1% penicillin/streptomycin). HCT116 cells were cultured in McCoy’s 5A medium supplemented with 10% FBS and 1% penicillin/streptomycin. […]
(§2) (#PCS-201-041) from ATCC. All cells were grown under standard conditions and maintained at 37 °C in an atmosphere of 5% CO2. For analysis of biological activity, cells were seeded at 3,000 cells/well into 96-well plates and allowed to attach overnight. On the day of the experiment, all cells were treated at the same time with the test compound or vehicle (0.1% DMSO) and plates returned to the cell culture incubator for 72 h. The viability of cells was measured at 72 h using a CellTiter-Glo® Luminescent Cell Viability Assay (Promega Corp) and luminescent signals measured using a multi-mode microplate reader (Biotek Synergy HT). Concentration-response relationships were analyzed using GraphPad Prism Software version 9.5.1 (GraphPad Software, Inc., San Diego, CA), and CC50 values derived using nonlinear regression analysis fit to a logistic equation. […]

[4] = system: HCT116 colon cancer cells; assay: CellTiter-Glo viability assay, HCT116 cells; type: cell-based, human; conditions: 50% viability after 72-hr incubation, n = 3
Description: as §1
(§3) Human U87-MG glioblastoma, HCT116 colon cancer cells and normal human dermal fibroblasts were from American Type Culture Collection (ATCC, Manasses, VA). […]
[…] streptomycin (1% penicillin/streptomycin). HCT116 cells were cultured in McCoy’s 5A medium supplemented with 10% FBS and 1% penicillin/streptomycin. […]
as §2

[5] = CellTiter-Glo viability assay, normal human dermal fibroblasts; type: cell-based; conditions: normal human dermal fibroblasts (HDFs), 50% viability after 72-hr incubation, n = 3, read-out: HDF CC50
Description: as §1, §3
as §2, with “Human dermal fibroblasts were cultured in Fibroblast Basal Medium (#PCS-201-030) supplemented with Fibroblast Growth Kit (#PCS-201-041)” for “(#PCS-201-041)”

[6] = system: normal human dermal fibroblasts (HDFs); assay: as above; type: cell-based; conditions: 50% viability after 72-hr incubation, n = 3, read-out: HDF CC50
Description: as §1, §3
as §2, with “Human dermal fibroblasts were cultured in Fibroblast Basal Medium (#PCS-201-030) supplemented with Fibroblast Growth Kit (#PCS-201-041)” for “(#PCS-201-041)”

[7] = system: endogenous VEGF-A secreted from human SF-268 glioblastoma cells; assay: Detection of secreted VEGF-A by ELISA; type: cell-based; conditions: 24 h, Figure S5

GLuc secretion (model Sec61 substrate) from U87-MG-GLuc cells, sequence (P61619 whole entry): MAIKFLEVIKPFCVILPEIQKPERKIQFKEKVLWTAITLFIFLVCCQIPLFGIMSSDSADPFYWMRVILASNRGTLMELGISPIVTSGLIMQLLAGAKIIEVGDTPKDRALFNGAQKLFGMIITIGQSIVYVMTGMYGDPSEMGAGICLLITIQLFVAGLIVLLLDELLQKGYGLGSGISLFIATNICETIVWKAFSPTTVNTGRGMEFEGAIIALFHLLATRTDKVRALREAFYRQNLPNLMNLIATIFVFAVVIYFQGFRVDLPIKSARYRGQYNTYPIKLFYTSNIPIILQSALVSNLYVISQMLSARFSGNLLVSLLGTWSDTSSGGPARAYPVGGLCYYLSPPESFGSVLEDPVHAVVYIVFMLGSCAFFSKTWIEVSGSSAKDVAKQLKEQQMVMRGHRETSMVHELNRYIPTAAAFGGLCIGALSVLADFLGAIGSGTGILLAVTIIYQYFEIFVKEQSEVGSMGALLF

CC[C@H](C)[C@H]1C(=O)N[C@@H](C)C(=O)N(C)[C@@H](CC(C)C)C(=O)N[C@@H](Cc2ccc(OC)cc2)C(=O)N(C)[C@H](C)C(=O)O[C@H](C)[C@H](N(C)C(=O)[C@H](CC(C)C)N(C)C(=O)[C@H](COC)N(C)C(=O)[C@H](OC(=O)[C@H](C(C)C)N(C)C)C(C)C)C(=O)N(C)[C@@H](COC)C(=O)N1C [Coibamide A (1a), coibamide A] (NMe2Val-[dHiv][NMeS](Me)[NMeL][NMeT][NMeS](Me)[NMeI]A[NMeL]Y(Me)[dNMeA]; ester 4-C) gave a CC50 [1] of 1.5 ± 0.4 nM, an IC50 [2] of 1.1 ± 0.3 nM and a CC50 [3] of 50 ± 6 nM. The CC50 [4] was 2.7 ± 0.5 nM and the CC50 at 72 h [5] was 6.7 ± 2.1 nM.
Molecule CC[C@H](C)[C@H]1C(=O)N[C@@H](C)C(=O)N(C)[C@@H](CC(C)C)C(=O)N[C@@H](Cc2ccc(OC)cc2)C(=O)N(C)[C@H](C)C(=O)O[C@H](C)[C@H](N(C)C(=O)[C@H](CC(C)C)N(C)C(=O)[C@H](C)N(C)C(=O)[C@H](OC(=O)[C@H](C(C)C)N(C)C)C(C)C)C(=O)N(C)[C@@H](C)C(=O)N1C [Peptide 1b, reference compound] (NMe2Val-[dHiv][NMeA][NMeL][NMeT][NMeA][NMeI]A[NMeL]Y(Me)[dNMeA]; ester 4-C) has a CC50 [1] of 3.1 ± 0.8 nM, an IC50 [2] of 2 ± 0.3 nM and a CC50 [3] of 2.6 ± 0.1 nM. The CC50 [4] was 3.9 ± 0.5 nM and the CC50 [6] was 4.6 ± 1.5 nM.
In the case of CC[C@H](C)[C@H]1C(=O)N[C@@H](C)C(=O)N(C)[C@@H](CC(C)C)C(=O)N[C@@H](Cc2ccc(OC)cc2)C(=O)N(C)[C@H](C)CC[C@H](C)[C@H](N(C)C(=O)[C@H](CC(C)C)N(C)C(=O)[C@H](C)N(C)C(=O)[C@H](OC(=O)[C@H](C(C)C)N(C)C)C(C)C)C(=O)N(C)[C@@H](C)C(=O)N1C [Peptide 3a], the CC50 [1] is reported as 41 ± 4 nM, the IC50 [2] is reported as 18 ± 1 nM and the CC50 [3] is reported as 56 ± 2 nM. For the same molecule, the CC50 [4] was 121 ± 23 nM, the CC50 [6] was 213 ± 29 nM and the “expression of endogenous secreted VEGF-A (in words)” value [7] was “statistically significant and concentration-dependent decreases”.
With CC[C@H](C)[C@H]1C(=O)N[C@@H](C)C(=O)N(C)[C@@H](CC(C)C)C(=O)N[C@@H](Cc2ccc(OC)cc2)C(=O)N(C)[C@H](C)/C=C/[C@H](C)[C@H](N(C)C(=O)[C@H](CC(C)C)N(C)C(=O)[C@H](C)N(C)C(=O)[C@H](OC(=O)[C@H](C(C)C)N(C)C)C(C)C)C(=O)N(C)[C@@H](C)C(=O)N1C [Peptide 3b] the “fold more potent (cytotoxicity) than 3a” value ([1]; A549 cells, CC50 compared with 3a) was 10 fold, the CC50 [1] was 2.6 ± 0.4 nM and the IC50 [2] was 13 ± 2 nM. It also gave a CC50 [3] of 6.2 ± 0.1 nM, a CC50 [4] of 11 ± 1 nM and a CC50 [6] of 8.3 ± 2.1 nM.
CC[C@H](C)[C@H]1C(=O)N[C@@H](C)C(=O)N(C)[C@@H](CC(C)C)C(=O)N[C@@H](Cc2ccc(OC)cc2)C(=O)N(C)[C@H](C)C(=O)N[C@H](C)[C@H](N(C)C(=O)[C@H](CC(C)C)N(C)C(=O)[C@H](C)N(C)C(=O)[C@H](OC(=O)[C@H](C(C)C)N(C)C)C(C)C)C(=O)N(C)[C@@H](C)C(=O)N1C [Peptide 16a] showed a CC50 [1] of 3.6 ± 1.4 nM, an IC50 [2] of 0.71 ± 0.09 nM and a CC50 [3] of 3.9 ± 0.5 nM. It also gave a CC50 [4] of 4.5 ± 0.5 nM and a CC50 [6] of 4.6 ± 1.4 nM.
CC[C@H](C)[C@H]1C(=O)N[C@@H](C)C(=O)N(C)[C@@H](CC(C)C)C(=O)N[C@@H](Cc2ccc(OC)cc2)C(=O)N(C)[C@H](C)C(=O)N[C@H](C)[C@H](N(C)C(=O)[C@H](CC(C)C)N(C)C(=O)[C@H](COC)N(C)C(=O)[C@H](OC(=O)[C@H](C(C)C)N(C)C)C(C)C)C(=O)N(C)[C@@H](COC)C(=O)N1C [Peptide 16b] showed a CC50 [1] of 1.3 ± 0.3 nM, an IC50 [2] of 0.04 ± 0.02 nM and a CC50 [3] of 2.2 ± 0.4 nM. For the same molecule, the CC50 [4] was 3.4 ± 0.6 nM and the CC50 [6] was 3.9 ± 1.5 nM.
In the case of CC[C@H](C)[C@H]1C(=O)N[C@@H](C)C(=O)N(C)[C@@H](CC(C)C)C(=O)N[C@@H](Cc2ccc(-c3ccccc3)cc2)C(=O)N(C)[C@H](C)C(=O)N[C@H](C)[C@H](N(C)C(=O)[C@H](CC(C)C)N(C)C(=O)[C@H](COC)N(C)C(=O)[C@H](OC(=O)[C@H](C(C)C)N(C)C)C(C)C)C(=O)N(C)[C@@H](COC)C(=O)N1C [Peptide 16c], the “fold more potent (cytotoxicity) than 1a” value ([1]; A549 cells, CC50 compared with 1a) is reported as “approximately 5 fold”, the CC50 [1] is reported as 0.27 ± 0.1 nM and the IC50 [2] is reported as 0.08 ± 0.03 nM. It also gave a CC50 [3] of 0.6 ± 0.2 nM, a CC50 [4] of 0.8 ± 0.23 nM and a CC50 [6] of 0.38 ± 0.08 nM.
Molecule CC[C@H](C)[C@H]1C(=O)N[C@@H](C)C(=O)N(C)[C@@H](CC(C)C)C(=O)N[C@@H](Cc2ccc(OC)cc2)C(=O)N(C)[C@H](C)C(=O)NC[C@H](N(C)C(=O)[C@H](CC(C)C)N(C)C(=O)[C@H](C)N(C)C(=O)[C@H](OC(=O)[C@H](C(C)C)N(C)C)C(C)C)C(=O)N(C)[C@@H](C)C(=O)N1C [Peptide 17a] (NMe2Val-[dHiv][NMeA][NMeL][NMeDap][NMeA][NMeI]A[NMeL]Y(Me)[dNMeA]; lactam 4-C) has an IC50 [2] of 30 ± 3.9 nM, a CC50 [3] of 48 ± 3 nM and a CC50 [4] of 60 ± 4 nM. It also gave a CC50 [6] of 123 ± 25 nM.
CC[C@H](C)[C@H]1C(=O)N[C@@H](C)C(=O)N(C)[C@@H](CC(C)C)C(=O)N[C@@H](Cc2ccc(OC)cc2)C(=O)N(C)[C@H](C)C(=O)N(C)C[C@H](N(C)C(=O)[C@H](CC(C)C)N(C)C(=O)[C@H](C)N(C)C(=O)[C@H](OC(=O)[C@H](C(C)C)N(C)C)C(C)C)C(=O)N(C)[C@@H](C)C(=O)N1C [Peptide 17b] gave a CC50 [1] of 6500 nM.
